Data taken from PMC9683861 (Journal of Molecular Biology, 2022).
“Also recorded” adds a separate entry of the source. Non-standard residues stand in square brackets, D forms with d. Residues, ends and D or L forms follow the SMILES beside them. No end group written: not given here. *: point of attachment. FITC = O=C1OC2(c3ccc(O)cc3Oc3cc(O)ccc32)c2ccc(NC(=S)*)cc21; pT = C[C@@H](OP(=O)(O)O)[C@H](N)C(=O)O; pS = N[C@@H](COP(=O)(O)O)C(=O)O

Assays:
14-3-3γ (gamma) = 14-3-3γ (gamma) (Homo sapiens, UniProt P61981); assay type: binding
14-3-3γ = 14-3-3γ (Homo sapiens, UniProt P61981); assay type: binding
[1] = system: all seven human 14-3-3 isoforms; assay type: binding
14-3-3σ (sigma) = 14-3-3σ (sigma) (Homo sapiens, UniProt P31947); assay type: binding
Sequence of 14-3-3σ (sigma) (P31947 whole entry): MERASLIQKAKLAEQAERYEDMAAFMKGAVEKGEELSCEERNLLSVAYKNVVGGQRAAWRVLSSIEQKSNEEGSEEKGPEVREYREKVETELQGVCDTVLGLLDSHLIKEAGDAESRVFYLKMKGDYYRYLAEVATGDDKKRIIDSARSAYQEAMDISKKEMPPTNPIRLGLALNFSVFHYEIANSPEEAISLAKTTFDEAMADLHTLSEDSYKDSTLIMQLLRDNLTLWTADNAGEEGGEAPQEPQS

[2] = target: T1, Untagged full-length human 14-3-3γ (human, UniProt P61981 1-247); assay: fluorescence polarisation
T1 sequence: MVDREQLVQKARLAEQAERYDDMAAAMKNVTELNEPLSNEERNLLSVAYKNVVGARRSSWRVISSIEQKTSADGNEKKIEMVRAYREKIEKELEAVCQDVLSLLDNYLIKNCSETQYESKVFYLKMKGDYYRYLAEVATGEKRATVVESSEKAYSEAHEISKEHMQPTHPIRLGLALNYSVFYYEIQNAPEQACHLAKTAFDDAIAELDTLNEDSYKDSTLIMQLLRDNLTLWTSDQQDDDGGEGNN

crystal structure = target: the molecule itself; assay: crystal structure

O=C1OC2(c3ccc(O)cc3Oc3cc(O)ccc32)c2ccc(N=C=S)cc21 [free FITC, fluorescein 5-isothiocyanate, reference compound]
Binding to MBP-14-3-3 (free FITC control) (14-3-3γ (gamma)): did not show significant binding

WLRRApSAPLPGLK [pB6]
Displacement of FITC-labeled peptide from 14-3-3 (14-3-3γ): could be disrupted

CSCC[C@H](NC(=O)[C@H](CCCNC(=N)N)NC(=O)[C@H](C)NC(=O)[C@@H]1CCCN1C(=O)[C@H](CO)NC(=O)[C@@H](NC(=O)CNC(=O)[C@H](CCCNC(=N)N)NC(=O)[C@H](CO)NC(=O)[C@H](CO)NC(=O)[C@H](Cc1c[nH]c2ccccc12)NC(=S)Nc1ccc2c(c1)C(=O)OC21c2ccc(O)cc2Oc2cc(O)ccc21)[C@@H](C)OP(=O)(O)O)C(=O)O [pT205] ({FITC}-WSSRG[pT]SPARM-OH)
Selectivity coefficient (KD pS197 / KD pT205), gamma (14-3-3γ (gamma)): ~7
Affinity preference [1]: preferred over the pS197-motif by all seven human 14-3-3 isoforms; also recorded: consistently tighter affinity than the pS197 fragment
KD ratio between weakest (14-3-3σ/pS197) and strongest (14-3-3γ/pT205) pair [1]: ~10 fold
Order of affinity over the 14-3-3 isoforms [1]: gamma (γ) > eta (η) > beta (β) > epsilon (ε) > zeta (ζ) > tau (τ) > sigma (σ)
Ratio of the average KD values pS197/pT205 [1]: 4.3 fold
Ratio: affinity of 14-3-3σ to pT205 versus pS197 peptide (14-3-3σ (sigma)): ~3 times tighter

B1: Unlabeled phosphopeptide of human HSPB6 (pB6) WLRRApSAPLPGLK (peptide)
peptide: WLRRA[pS]APLPGLK
binding result [2]: binds

B2: C-terminally truncated human 14-3-3σ (residues 1–231) Clu3 mutant (75EEK77 → 75AAA77) (domain or fragment)
chain: MERASLIQKAKLAEQAERYEDMAAFMKGAVEKGEELSCEERNLLSVAYKNVVGGQRAAWRVLSSIEQKSNEEGSAAAGPEVREYREKVETELQGVCDTVLGLLDSHLIKEAGDAESRVFYLKMKGDYYRYLAEVATGDDKKRIIDSARSAYQEAMDISKKEMPPTNPIRLGLALNFSVFHYEIANSPEEAISLAKTTFDEAMADLHTLSEDSYKDSTLIMQLLRDNLTLWT
stoichiometry N (crystal structure): 2

B3: C-terminally truncated human 14-3-3σ (residues 1–231) Clu1 mutant (159KKE161 → 159AAA161) (domain or fragment)
chain: MERASLIQKAKLAEQAERYEDMAAFMKGAVEKGEELSCEERNLLSVAYKNVVGGQRAAWRVLSSIEQKSNEEGSEEKGPEVREYREKVETELQGVCDTVLGLLDSHLIKEAGDAESRVFYLKMKGDYYRYLAEVATGDDKKRIIDSARSAYQEAMDISAAAMPPTNPIRLGLALNFSVFHYEIANSPEEAISLAKTTFDEAMADLHTLSEDSYKDSTLIMQLLRDNLTLWT
stoichiometry N (crystal structure): 2
